The record followed here is US12258360B2, “Compositions and methods for treatment of anticancer-drug resistant cancers” (THE GEORGE WASHINGTON UNIVERSITY, priority 2020, dated 2025).

In one data set the test system is IGROV1 cells. In words: flow cytometry (FACS) of propidium-iodide stained IGROV1 cells. Format: cell-based, human. The conditions noted are these: 1 μM.
A further data set has as its target T1, And-1 polymerization (Homo sapiens, UniProt O75717).
T1 construct: expressed in transfected cells; host or cells: U2OS
T1 sequence (O75717 1-1129): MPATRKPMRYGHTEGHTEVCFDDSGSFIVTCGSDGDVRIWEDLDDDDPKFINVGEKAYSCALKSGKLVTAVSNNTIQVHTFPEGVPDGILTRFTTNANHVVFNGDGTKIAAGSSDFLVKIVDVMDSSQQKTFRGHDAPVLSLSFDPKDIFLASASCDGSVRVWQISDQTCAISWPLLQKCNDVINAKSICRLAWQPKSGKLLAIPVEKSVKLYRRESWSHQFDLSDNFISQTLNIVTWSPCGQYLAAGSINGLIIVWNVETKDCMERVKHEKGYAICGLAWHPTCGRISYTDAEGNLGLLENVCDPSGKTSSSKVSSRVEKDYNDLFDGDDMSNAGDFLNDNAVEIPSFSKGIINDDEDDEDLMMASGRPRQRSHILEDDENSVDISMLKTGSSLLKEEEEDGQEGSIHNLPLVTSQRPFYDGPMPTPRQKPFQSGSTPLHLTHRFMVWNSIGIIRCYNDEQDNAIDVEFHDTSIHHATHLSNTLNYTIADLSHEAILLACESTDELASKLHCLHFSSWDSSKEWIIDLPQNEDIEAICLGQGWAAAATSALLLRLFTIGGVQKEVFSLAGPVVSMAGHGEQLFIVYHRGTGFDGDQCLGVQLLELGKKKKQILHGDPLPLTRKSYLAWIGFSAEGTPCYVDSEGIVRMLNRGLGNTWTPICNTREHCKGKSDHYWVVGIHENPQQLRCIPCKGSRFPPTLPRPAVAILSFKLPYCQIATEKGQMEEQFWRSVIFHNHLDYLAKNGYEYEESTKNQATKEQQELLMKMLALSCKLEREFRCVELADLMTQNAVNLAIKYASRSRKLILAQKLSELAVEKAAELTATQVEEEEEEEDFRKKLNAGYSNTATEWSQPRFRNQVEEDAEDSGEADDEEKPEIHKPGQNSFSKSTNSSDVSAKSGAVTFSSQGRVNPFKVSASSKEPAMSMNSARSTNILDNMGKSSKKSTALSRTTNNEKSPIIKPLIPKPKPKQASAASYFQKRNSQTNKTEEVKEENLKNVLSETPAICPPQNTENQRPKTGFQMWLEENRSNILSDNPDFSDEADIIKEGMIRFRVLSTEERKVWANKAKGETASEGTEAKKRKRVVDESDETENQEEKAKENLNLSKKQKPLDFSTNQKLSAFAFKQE
Description: FLAG-And-1 / HA-And-1 co-immunoprecipitation in U2OS cells. Format: cell-based. From the text:
Human And-1 exists as a homotrimer mediated by the SepB domain. To determine whether the interaction of CH3 with the WD40 domain can disrupt And-1 polymerization, resulting in exposure of CUL4B binding site on And-1 to CUL4B, both FLAG-And-1 and HA-And-1 were transfected into U2OS cells and the protein-protein interaction was examined in the presence of CH3.

The test system of another data set is IGROV1 CR cells. Description: SRB cell viability, synergy with cisplatin (combination index). The format is cell-based, human. The procedure:
Given that And-1 phosphorylation was positively correlated with cisplatin resistance in OC according the Examples above, it was next determined whether And-1 phosphorylation contributes to cell survival in response to cisplatin. The cell viability to cisplatin in IGROV1, OV90 and mice ID80 cells overexpressed with FLAG-And-1-WT, FLAG-And-1-T826A and phosphomimetic FLAG-And-1-T826E was examined. In brief, cells were seeded in 96-well plate at a density of 3,000-5,000 cells per well and treated with indicated reagents for different concentration. Three days after treatment, the cell viability was measured by Sulforhodamine B (SRB) assay. The IC50 values and CI index were further determined by compusyn software. Every experiment was done in triplicate and repeated three times. […] To confirm And-1 was the primary target of ATR to promote platinum-resistance, the sensitivity of IGROV1 cells to cisplatin was examined using genetic analyses.
To determine whether And-1 inhibitors can overcome cisplatin resistance in OC cells, the synergy of And-1 inhibitors and cisplatin in IGROV1 CR cells was examined.

The next data set addresses T2, And-1 (Homo sapiens, UniProt O75717).
T2 sequence (O75717 1-1129): T1 sequence (O75717 1-1129)
In words: cellular thermal shift assay. The conditions noted are these: cells incubated 8 hours, compared to DMSO. Format: binding. Also on record: endogenous in cells; host or cells: IGROV1 CR. The protocol: To explore whether And-1 inhibitors directly bind to And-1, cellular thermal shift assays were performed in which a small molecule binds to a protein resulting in thermal stabilization of the protein. Briefly, cells were incubated with MG132 (10 μM), DHS, CH3, CH10 or DMSO for 8 hours. After washing with ice-cold PBS (suppled with Protease Inhibitor Cocktail), cells were aliquoted into PCR tubes (100 μL each) and then incubated at different temperatures (from 25° C. to 71° C.) for 4 minutes. After the cells were frozen and thawed twice using liquid nitrogen, proteins were isolated from the cells after centrifugation and incubated at 70° C. for 10 minutes for analysis by western blotting.

In a further data set the test system is IGROV1 CR xenograft. The format is in vivo, mice. The protocol: To evaluate the potency of And-1 inhibitors in vivo, IGROV1 or MCF7 cells were subcutaneously implanted into nude mice to form ovarian or breast tumors, respectively. In brief, 5-6 week-old female BALB/c athymic nude mice (CByJ.Cg-Foxn1nu/J, weighting 20-25 grams) were inoculated subcutaneously by injecting the OC cells, cisplatin resistant OC cells or breast cancer cells suspended in 100 μl ice-cold Matrigel/PBS (1:1, V:V; 5×10^6/mouse) into the dorsal flank of each mouse. When the average tumor volume reached 100-150 mm^3, the mice were randomized into subsequent experiment groups. For tumors treated with CH3 only, CH3 was given at 0 mg/kg, 20 mg/kg and 40 mg/kg via intraperitoneal injection twice a week for three weeks. […] The relative tumor volumes were calculated using the formula: a×(b^2)/2, for which a and b represented the longest and shortest diameters, respectively. During the drug treatment, the tumor volume and body weight were measured. Tumor samples were collected 4 days after final administration of the drug.
To assess the efficacy of combination therapy with And-1 inhibitor and cisplatin in vivo, an IGROV1 CR xenograft was treated with vehicle, And-1 inhibitors, cisplatin or combination of cisplatin and And-1 inhibitor via intraperitoneal injection.

`OB1OCc2cc(/C=C/c3ccc(Cl)c(Cl)c3)ccc21` [CH3]: the “percentage of cells in the S-phase” value in the data set on IGROV1 cells is recorded as “reduced the percentage of cells in the S-phase”. The “interaction between HA-And-1 and FLAG-And-1” value on And-1 polymerization is “significantly decreased”. Moreover, the “synergy with cisplatin to inhibit cell proliferation (combination index)” value in the data set with IGROV1 CR cells is “significant synergy”. Besides, the “thermal stabilization of And-1 protein at higher temperatures” value at And-1 was “stabilized”. In addition, the “And-1 expression in tumor samples (IHC)” value in the data set with IGROV1 CR xenograft (IGROV1 CR xenograft) is recorded as “suppressed expression of And-1”. Moreover, the “tumor growth, combination with cisplatin vs cisplatin alone” value in the data set with IGROV1 CR xenograft (IGROV1 CR xenograft, cisplatin 8 mg/kg, CH3 20 mg/kg, BZA 2 mg/kg intraperitoneally, three weeks) was “excellent synergy in reducing tumor growth”. Also, in the data set with IGROV1 CR xenograft (mouse, in vivo), the “systemic toxicity of combination with cisplatin (body weight, H&E staining)” value is on record as “no obvious systemic toxicity or side effect”.
